Where two headings read alike, the source gives them in different places.
How the values were obtained:
Conditions in all cases: mouse, at 4 hours
[1] = system: constipation induced by loperamide
[2] = system: constipation induced by loperamide; remark: listed apart in the source
Procedure: The mice were divided into three groups one as control and two administered with loperamide hydrochloride (5 mg/kg).

[3] = system: constipation induced by morphine
Procedure: The mice were divided into three groups one as control and two administered intraperitoneally with morphine hydrochloride (5 mg/kg).

CN(C)C(=O)C(CCN1CCC(O)(c2ccc(Cl)cc2)CC1)(c1ccccc1)c1ccccc1 [loperamide, reference compound]
wet weight of stools, opioid alone ([1]; loperamide 5 mg/kg orally in 20% gum arabic alone, control group 200 mg): 22 mg | wet weight of stools, opioid alone ([2]; loperamide hydrochloride 5 mg/kg alone, control group 200 mg): 15 mg

CN1CC[C@]23c4c5ccc(O)c4O[C@H]2[C@@H](O)C=C[C@H]3[C@H]1C5 [morphine, reference compound]
wet weight of stools, opioid alone ([3]; morphine hydrochloride 5 mg/kg intraperitoneally alone, control group 200 mg): 25 mg

Tyrosyl-D-arginyl-cinnamylpiperazine dihydrochloride [peptidomimetic 3]
stools relative to control group ([1]; loperamide 5 mg/kg with peptidomimetic 10 mg/kg in 20% gum arabic): 60% | wet weight of stools ([1]; loperamide 5 mg/kg with peptidomimetic 10 mg/kg in 20% gum arabic, control group 200 mg): 120 mg

tyrosyl-D-alanyl-glycyl-cinnamylpiperazine hydrochloride [peptidomimetic 1]
stools relative to control group ([2]; peptidomimetic 10 mg/kg orally 30 minutes before loperamide hydrochloride 5 mg/kg): 80% | wet weight of stools ([2]; peptidomimetic 10 mg/kg orally 30 minutes before loperamide hydrochloride 5 mg/kg, control group 200 mg): 160 mg

tyrosyl-D-threonyl-glycyl-phenylalanyl-cinnamylpiperazine hydrochloride [peptidomimetic 2]
reversal of morphine effect on stools ([3]; peptidomimetic orally 30 minutes before morphine hydrochloride 5 mg/kg intraperitoneally): fully reversed morphine effect
